Measured values published in ChEMBL document CHEMBL5352506, “The Zinc-Binding Group Effect: Lessons from Non-Hydroxamic Acid Vorinostat Analogs” (J Med Chem, 2023).

Key:
Histone deacetylase [1] = type: cell-based, Homo sapiens; details: hela
[2] = molecular target: Histone deacetylase (HDAC1 and HDAC2) (Homo sapiens, UniProt Q13547+Q92769); experiment: Inhibition of HDAC1/2 in human K562 nuclear extraction; type: cell-free
[3] = Dissociation constant, pKa of the compound; type: physicochemical
Histone deacetylase 1 = Histone deacetylase 1 (Homo sapiens, UniProt Q13547); experiment: Inhibition of HDAC1 (unknown origin); details: pooled result: one value given for 7 cell lines, strains, targets or settings
[4] = molecular target: T1, Protein deacetylase HDAC6 (Homo sapiens, UniProt Q9UBN7); experiment: Inhibition of human recombinant HDAC6
T1 sequence (Q9UBN7 whole entry): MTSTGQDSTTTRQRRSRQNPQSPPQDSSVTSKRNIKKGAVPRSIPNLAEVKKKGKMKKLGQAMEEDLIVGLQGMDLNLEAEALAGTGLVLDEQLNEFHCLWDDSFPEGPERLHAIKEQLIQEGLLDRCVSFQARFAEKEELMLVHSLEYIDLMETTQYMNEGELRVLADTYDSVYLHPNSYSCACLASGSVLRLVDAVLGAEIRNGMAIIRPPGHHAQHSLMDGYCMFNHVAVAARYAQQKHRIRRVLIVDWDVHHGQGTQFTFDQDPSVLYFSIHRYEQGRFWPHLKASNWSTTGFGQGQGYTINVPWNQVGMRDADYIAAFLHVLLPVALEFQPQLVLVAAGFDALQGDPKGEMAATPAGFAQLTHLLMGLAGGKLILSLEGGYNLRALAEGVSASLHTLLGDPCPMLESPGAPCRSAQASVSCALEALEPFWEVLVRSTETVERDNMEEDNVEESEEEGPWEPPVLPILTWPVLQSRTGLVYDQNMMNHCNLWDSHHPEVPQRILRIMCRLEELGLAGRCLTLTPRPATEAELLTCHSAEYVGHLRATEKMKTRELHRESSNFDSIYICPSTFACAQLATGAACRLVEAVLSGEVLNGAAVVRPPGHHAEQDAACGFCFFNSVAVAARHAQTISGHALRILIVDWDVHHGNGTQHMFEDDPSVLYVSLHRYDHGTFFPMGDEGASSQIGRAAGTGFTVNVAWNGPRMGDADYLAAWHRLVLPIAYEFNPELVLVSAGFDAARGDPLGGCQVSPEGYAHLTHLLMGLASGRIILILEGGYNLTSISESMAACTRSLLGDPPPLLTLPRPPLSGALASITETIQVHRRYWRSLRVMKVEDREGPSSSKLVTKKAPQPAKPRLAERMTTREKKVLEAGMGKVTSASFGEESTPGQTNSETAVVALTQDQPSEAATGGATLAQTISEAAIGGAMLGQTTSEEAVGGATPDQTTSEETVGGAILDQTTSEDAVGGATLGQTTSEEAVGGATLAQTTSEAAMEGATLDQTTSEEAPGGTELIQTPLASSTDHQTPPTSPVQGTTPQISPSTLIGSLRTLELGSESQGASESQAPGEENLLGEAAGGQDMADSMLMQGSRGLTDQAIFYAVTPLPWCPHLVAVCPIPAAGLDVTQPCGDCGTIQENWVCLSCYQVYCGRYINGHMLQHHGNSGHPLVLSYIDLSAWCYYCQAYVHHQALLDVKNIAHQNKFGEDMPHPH

Histone deacetylase [5] = experiment: Inhibition of HDAC (unknown origin); type: protein assay, Homo sapiens
Histone deacetylase 4 = Histone deacetylase 4 (Homo sapiens, UniProt P56524); experiment: Inhibition of human recombinant HDAC4
Histone deacetylase 8 = molecular target: T2, Histone deacetylase 8 (Homo sapiens, UniProt Q9BY41); experiment: Inhibition of human recombinant HDAC8
T2 sequence (Q9BY41 whole entry): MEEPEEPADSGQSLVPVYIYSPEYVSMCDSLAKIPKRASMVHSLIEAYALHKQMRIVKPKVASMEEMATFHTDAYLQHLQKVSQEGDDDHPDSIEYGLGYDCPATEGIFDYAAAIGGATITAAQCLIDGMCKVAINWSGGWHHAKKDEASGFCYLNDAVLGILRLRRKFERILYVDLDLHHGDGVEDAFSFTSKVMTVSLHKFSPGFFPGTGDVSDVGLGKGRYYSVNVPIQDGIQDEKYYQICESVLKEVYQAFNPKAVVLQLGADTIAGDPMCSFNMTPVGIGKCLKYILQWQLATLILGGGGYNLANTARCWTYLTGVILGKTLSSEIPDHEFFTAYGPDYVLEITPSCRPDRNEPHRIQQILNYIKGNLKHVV

Histone deacetylase 7 = molecular target: T3, Histone deacetylase 7 (Homo sapiens, UniProt Q8WUI4); experiment: Inhibition of human recombinant HDAC7
T3 sequence (Q8WUI4 whole entry): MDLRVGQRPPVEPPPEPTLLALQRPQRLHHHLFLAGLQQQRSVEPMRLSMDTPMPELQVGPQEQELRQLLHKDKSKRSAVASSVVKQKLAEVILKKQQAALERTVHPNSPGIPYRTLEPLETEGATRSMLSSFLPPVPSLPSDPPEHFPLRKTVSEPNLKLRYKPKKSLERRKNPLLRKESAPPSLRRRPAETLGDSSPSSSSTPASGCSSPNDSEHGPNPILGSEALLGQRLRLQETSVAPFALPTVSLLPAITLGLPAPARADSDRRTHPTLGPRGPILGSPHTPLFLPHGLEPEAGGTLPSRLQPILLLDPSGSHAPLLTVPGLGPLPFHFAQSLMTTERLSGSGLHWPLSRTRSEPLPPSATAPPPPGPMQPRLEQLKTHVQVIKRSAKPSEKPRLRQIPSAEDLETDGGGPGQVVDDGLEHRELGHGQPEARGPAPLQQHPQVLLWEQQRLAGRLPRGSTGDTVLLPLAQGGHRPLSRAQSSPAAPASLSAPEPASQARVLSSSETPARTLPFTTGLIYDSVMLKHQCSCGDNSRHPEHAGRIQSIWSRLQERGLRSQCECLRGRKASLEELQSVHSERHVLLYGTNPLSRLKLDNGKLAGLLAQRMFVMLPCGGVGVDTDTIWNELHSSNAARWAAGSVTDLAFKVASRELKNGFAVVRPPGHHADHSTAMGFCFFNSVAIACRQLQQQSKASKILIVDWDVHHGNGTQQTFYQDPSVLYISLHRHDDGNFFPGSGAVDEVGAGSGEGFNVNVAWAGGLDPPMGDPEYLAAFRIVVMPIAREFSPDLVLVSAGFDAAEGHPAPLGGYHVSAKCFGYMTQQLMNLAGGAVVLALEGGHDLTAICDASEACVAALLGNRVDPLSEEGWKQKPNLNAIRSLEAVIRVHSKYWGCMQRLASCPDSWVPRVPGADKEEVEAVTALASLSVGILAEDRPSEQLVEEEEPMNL

[6] = molecular target: T4, Polyamine deacetylase HDAC10 (Homo sapiens, UniProt Q969S8); experiment: Inhibition of human recombinant HDAC10
T4 sequence (Q969S8 whole entry): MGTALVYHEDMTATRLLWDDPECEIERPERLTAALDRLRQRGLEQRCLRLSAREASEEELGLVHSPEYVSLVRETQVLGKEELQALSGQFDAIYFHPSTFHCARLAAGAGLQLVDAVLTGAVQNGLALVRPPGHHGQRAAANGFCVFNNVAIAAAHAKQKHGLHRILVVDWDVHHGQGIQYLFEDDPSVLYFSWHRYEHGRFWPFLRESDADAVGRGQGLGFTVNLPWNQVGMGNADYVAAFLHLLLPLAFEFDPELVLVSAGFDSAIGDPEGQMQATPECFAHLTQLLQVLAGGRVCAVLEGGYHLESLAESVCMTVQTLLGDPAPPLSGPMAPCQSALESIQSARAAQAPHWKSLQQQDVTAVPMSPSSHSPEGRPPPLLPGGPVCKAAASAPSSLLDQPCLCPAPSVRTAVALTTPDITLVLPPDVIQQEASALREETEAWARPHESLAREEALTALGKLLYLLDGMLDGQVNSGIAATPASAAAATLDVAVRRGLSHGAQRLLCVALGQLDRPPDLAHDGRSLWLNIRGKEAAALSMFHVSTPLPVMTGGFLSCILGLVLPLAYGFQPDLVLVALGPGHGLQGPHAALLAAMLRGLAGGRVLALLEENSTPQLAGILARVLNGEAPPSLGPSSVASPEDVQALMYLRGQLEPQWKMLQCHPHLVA

Histone deacetylase 5 = Histone deacetylase 5 (Homo sapiens, UniProt Q9UQL6); experiment: Inhibition of human recombinant HDAC5
Histone deacetylase 2 = Histone deacetylase 2 (Homo sapiens, UniProt Q92769)
Histone deacetylase 11 = molecular target: T5, Histone deacetylase 11 (Homo sapiens, UniProt Q96DB2); experiment: Inhibition of human recombinant HDAC11
T5 sequence (Q96DB2 whole entry): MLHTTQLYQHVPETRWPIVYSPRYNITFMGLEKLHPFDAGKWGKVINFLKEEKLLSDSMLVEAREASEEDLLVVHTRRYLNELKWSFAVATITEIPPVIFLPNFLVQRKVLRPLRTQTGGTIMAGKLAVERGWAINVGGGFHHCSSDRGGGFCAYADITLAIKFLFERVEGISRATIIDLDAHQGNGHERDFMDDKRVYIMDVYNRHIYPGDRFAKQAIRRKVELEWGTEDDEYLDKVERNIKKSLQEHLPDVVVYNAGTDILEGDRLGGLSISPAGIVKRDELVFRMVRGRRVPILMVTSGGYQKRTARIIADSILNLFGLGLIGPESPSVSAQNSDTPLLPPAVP

Histone deacetylase 3 = Histone deacetylase 3 (Homo sapiens, UniProt O15379); experiment: Inhibition of human recombinant HDAC3
Histone deacetylase 3, sequence (O15379 whole entry): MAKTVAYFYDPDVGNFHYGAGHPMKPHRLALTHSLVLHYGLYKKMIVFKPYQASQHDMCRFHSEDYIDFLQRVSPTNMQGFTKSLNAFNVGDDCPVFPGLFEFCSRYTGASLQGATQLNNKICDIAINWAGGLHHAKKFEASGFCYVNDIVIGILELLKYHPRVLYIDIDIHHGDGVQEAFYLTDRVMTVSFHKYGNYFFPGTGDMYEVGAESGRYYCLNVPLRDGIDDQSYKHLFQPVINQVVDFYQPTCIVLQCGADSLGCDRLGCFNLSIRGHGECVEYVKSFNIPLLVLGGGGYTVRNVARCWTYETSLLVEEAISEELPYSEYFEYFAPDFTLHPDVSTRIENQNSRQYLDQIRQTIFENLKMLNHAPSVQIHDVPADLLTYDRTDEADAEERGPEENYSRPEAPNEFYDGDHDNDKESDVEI

Histone deacetylase 4, sequence (P56524 whole entry): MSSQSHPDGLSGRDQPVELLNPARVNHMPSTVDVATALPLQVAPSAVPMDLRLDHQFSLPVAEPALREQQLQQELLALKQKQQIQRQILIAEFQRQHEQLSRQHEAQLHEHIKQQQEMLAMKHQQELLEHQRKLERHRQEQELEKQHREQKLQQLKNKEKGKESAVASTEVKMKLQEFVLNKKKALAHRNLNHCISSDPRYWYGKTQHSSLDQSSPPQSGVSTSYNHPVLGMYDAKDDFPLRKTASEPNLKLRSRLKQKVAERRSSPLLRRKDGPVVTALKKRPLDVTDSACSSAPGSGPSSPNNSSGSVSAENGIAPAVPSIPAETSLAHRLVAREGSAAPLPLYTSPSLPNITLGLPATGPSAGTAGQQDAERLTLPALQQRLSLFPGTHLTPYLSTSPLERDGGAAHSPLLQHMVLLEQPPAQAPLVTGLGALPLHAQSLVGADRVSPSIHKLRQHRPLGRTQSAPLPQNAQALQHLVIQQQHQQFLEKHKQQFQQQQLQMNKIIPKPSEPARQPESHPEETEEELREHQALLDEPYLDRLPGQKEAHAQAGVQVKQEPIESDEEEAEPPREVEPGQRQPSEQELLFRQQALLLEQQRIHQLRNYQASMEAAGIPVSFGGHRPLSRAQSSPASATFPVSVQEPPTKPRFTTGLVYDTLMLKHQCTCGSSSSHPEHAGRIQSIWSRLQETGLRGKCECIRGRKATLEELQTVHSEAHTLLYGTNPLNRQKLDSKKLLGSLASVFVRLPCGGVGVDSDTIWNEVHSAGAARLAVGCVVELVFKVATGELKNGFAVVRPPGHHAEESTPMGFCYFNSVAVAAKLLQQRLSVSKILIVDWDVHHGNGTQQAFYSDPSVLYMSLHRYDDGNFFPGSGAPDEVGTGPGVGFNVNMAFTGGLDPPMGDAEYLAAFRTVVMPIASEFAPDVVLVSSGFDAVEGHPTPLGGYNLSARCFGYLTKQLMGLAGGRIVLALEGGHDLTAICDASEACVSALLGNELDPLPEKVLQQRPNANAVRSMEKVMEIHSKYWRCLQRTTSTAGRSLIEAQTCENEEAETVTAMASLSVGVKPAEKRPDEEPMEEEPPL
Histone deacetylase 1, sequence (Q13547 whole entry): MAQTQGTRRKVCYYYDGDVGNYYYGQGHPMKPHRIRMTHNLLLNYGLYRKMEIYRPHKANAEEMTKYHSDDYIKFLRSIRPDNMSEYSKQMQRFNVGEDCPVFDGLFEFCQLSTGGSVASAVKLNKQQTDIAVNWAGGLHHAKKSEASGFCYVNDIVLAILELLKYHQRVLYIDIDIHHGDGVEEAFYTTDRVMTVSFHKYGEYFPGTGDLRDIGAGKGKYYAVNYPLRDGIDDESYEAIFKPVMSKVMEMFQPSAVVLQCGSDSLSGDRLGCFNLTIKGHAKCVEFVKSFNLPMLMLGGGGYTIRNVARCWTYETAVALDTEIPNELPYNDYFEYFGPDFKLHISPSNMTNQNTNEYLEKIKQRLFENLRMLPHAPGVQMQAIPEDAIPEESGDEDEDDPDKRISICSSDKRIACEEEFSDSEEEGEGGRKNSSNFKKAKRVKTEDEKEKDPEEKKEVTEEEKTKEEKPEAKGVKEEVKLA
Histone deacetylase 5, sequence (Q9UQL6 whole entry): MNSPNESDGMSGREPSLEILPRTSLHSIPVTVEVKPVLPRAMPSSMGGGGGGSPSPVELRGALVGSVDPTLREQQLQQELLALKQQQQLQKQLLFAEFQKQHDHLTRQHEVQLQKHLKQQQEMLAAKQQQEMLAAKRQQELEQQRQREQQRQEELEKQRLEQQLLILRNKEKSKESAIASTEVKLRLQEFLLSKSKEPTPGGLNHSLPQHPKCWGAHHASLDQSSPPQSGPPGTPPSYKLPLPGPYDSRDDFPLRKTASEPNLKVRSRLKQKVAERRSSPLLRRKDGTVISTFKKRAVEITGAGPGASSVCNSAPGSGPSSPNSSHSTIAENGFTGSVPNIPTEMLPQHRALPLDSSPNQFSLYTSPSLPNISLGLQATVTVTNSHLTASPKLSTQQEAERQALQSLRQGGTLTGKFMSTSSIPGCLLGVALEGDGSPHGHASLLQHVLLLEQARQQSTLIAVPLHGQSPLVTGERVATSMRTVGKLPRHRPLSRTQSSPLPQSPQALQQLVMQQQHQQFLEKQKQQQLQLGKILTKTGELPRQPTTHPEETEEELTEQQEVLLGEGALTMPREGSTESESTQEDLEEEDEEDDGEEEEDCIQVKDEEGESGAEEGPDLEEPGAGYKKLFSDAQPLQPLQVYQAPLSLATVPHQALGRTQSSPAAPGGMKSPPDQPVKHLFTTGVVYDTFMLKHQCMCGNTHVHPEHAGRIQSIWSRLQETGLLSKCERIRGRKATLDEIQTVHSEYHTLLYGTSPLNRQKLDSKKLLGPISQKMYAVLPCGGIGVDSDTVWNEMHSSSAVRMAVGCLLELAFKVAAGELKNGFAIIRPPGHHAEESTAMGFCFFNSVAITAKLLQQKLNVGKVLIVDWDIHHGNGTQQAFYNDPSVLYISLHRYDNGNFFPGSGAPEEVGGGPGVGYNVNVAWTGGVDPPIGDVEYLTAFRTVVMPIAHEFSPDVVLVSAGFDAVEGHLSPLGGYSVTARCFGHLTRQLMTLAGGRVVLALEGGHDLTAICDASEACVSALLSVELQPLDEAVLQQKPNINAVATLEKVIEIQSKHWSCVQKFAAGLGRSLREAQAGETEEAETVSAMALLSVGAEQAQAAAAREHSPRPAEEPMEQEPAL
Histone deacetylase 2, sequence (Q92769 whole entry): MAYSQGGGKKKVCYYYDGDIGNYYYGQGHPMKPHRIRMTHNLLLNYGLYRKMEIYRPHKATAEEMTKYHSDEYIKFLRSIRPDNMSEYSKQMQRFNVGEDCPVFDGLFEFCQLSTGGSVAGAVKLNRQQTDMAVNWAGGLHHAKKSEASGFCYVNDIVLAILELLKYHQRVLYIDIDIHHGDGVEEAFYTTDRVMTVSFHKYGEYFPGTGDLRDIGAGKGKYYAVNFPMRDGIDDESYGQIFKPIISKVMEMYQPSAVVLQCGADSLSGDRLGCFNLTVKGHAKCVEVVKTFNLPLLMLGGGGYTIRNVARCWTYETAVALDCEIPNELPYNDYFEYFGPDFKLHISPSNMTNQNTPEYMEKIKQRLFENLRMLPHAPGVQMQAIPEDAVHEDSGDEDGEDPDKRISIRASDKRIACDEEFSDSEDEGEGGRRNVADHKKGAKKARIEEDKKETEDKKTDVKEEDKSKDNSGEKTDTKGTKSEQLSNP

With `O=C(CO)NCCCCCC(=O)Nc1ccccc1` the IC50 (Histone deacetylase [1]) was greater than 100 µM.

In the case of `CN(C)C(=O)C(=O)CCCCCCOc1ccc(-c2ccccc2)cc1`, the IC50 [2] is reported as greater than 5 µM.

`O=C(CCCCCCC(=O)Nc1ccccc1)NO` [VORINOSTAT] gave a pKa [3] of 9.4.

`CNC(=O)/C(CCCCCCC(=O)Nc1ccccc1)=N\O` showed an IC50 (Histone deacetylase 1) of 22 µM.

`CCNC(=O)C(=O)CCCCCCOc1ccc(-c2ccccc2)cc1` showed an IC50 [2] of 4.9 µM.

For `O=C(CCCCCOP([O-])([O-])=S)Nc1ccccc1.[K+].[K+]`, the IC50 (Histone deacetylase [1]) was 50 µM.

`O=C(CCCCCOP(=O)([O-])[O-])Nc1ccccc1.[K+].[K+]` gave an IC50 (Histone deacetylase [1]) of 60 µM.

`O=C(CCCCCNP(=O)([O-])[O-])Nc1ccccc1.[K+].[K+]` showed an IC50 (Histone deacetylase [1]) of 70 µM.

`C[C@@H](O)C(=O)CCCCCCC(=O)Nc1ccccc1` showed an IC50 [4] greater than 300 µM, an IC50 (Histone deacetylase [5]) greater than 33 µM and an IC50 (Histone deacetylase [1]) of 8.9 µM.

Work on `NCC(=O)NCCCCCC(=O)Nc1ccccc1` yielded an IC50 (Histone deacetylase [1]) greater than 100 µM.

`O=C(O)CNC(=O)C(=O)CCCCCCOc1ccc(-c2ccccc2)cc1` showed an IC50 [2] greater than 50 µM.

Work on `C[S+]([O-])CCCCCCC(=O)Nc1ccccc1` (configuration not stated) yielded an IC50 (Histone deacetylase [1]) of 48 µM.

In the case of `O=C(CCCCCCNP(=O)([O-])[O-])Nc1ccccc1.[K+].[K+]`, the IC50 (Histone deacetylase [1]) is reported as 490 µM.

For `C[Si](O)(O)CCCCCCC(=O)Nc1ccccc1`, the IC50 [4] was 18 µM, the IC50 (Histone deacetylase 4) was greater than 100 µM and the IC50 (Histone deacetylase 8) was 27 µM. For the same compound, the IC50 (Histone deacetylase 7) was greater than 100 µM, the IC50 [6] was 5 µM and the IC50 (Histone deacetylase 5) was greater than 100 µM. It also gave an IC50 (Histone deacetylase 2) of 6 µM, an IC50 (Histone deacetylase 11) of 57 µM and an IC50 (Histone deacetylase 3) of 0.6 µM.

With `CNC(=O)C(=O)CCCCCCOc1ccc(-c2ccccc2)cc1` the IC50 [2] was 0.11 µM.

With `C[C@H](O)C(=O)CCCCCCC(=O)Nc1ccccc1` the IC50 [4] was greater than 300 µM and the IC50 (Histone deacetylase [1]) was 77.1 µM.
